Measurements as given in US20230165876A1, “METHYLTHIONINIUM COMPOUNDS FOR USE IN THE TREATMENT OF COVID-19” (WisTa Laboratories Ltd., priority 2020, published 2023).
Where a SMILES comes first, the peptide text is derived from it. The star is where a group is joined. Cbz = O=C(OCc1ccccc1)*; CHN2 = [N-]=[N+]=C*

How the values were obtained:
SARS-CoV-2 [1] = details: Vero E6 cells; screen concentration 5 µM; cited from earlier work
SARS-CoV-2 [2] = details: 20 COVID-19 patients; cited from earlier work
[3] = LMTM in AD; cited from earlier work
[4] = Oral doses with anti-viral activity and LMTM equivalent calculated from AD activity data; design: species or system human; details: calculated using the activity data in AD as basis for comparison
red cells = details: administered intravenously; LMTM relative to MTC; cited from earlier work
[5] = LMTM relative to MTC; cited from earlier work
Complex IV = details: tau transgenic mouse model; cited from earlier work
[6] = Phase 3 double-blind controlled studies of LMTM in AD and bvFTD, safety; type: in vivo, human
Description: Three Phase 3, double-blind, controlled studies of LMTM have been completed (one each in subjects with mild and mild to moderate AD and one in subjects with bvFTD). Results of the AD studies have been published (Gauthier et al., 2016; Wilcock et al., 2018; Shiells et al., 2020). These studies provide an overview of the more common adverse events that might be expected at a dose of LMTM 16 mg/day. In these three studies, 1897 subjects received at least one dose of LMTM. Of these, 860 subjects received LMTM 8 mg/day and 1037 subjects received at least one dose of LMTM in the higher doses of 150 to 250 mg/day. The mean ages of study participants were 71 years (ranging up to 89 years) for subjects with AD and 63 years (ranging up to 79 years) for subjects with bvFTD.
The overall person-years of exposure to LMTM 8 mg/day was 995.2 person-years and to the higher LMTM doses of 150 to 250 mg/day was 988.6 person-years. Six percent (6%) of the subjects discontinued LMTM 8 mg/day due to adverse events; the proportion of subjects discontinuing due to adverse events in the higher dose groups was higher (14%).
The most common Treatment-Emergent Adverse Events (TEAEs) considered at least possibly associated with LMTM given in a dose of 8 mg/day were gastrointestinal (mostly diarrhoea and nausea), genitourinary (mostly pollakiuria and urinary incontinence), haematologic (anaemia, decreased folate, and folate deficiency), and nervous system related (mostly fatigue, dizziness, headache, agitation, and insomnia).
In summary, therefore, the safety of LMTM has been studied in over 2400 patients in Phase 1 and Phase 3 trials at repeat doses up to 450 mg/day. Even at the highest doses examined, the safety profile of LMTM remains benign and consistent with further clinical development.

SARS-CoV-2 [7] = details: advanced COVID-19 cases, treated vs not treated; cited from earlier work
SARS-CoV-2 [8] = details: cited from earlier work
SARS-CoV = details: cited from earlier work

CC(C)CC(NC(=O)OCc1ccccc1)C(=O)NC(C(=O)NCC(=O)C=[N+]=[N-])C(C)C (stereo not drawn) [Z LVG CHN2] (Cbz-Leu-Val-Gly-CHN2; configuration not given here)
inhibition of viral replication (SARS-CoV-2 [1]): inhibited viral replication

CCN(CCO)CCCC(C)Nc1ccnc2cc(Cl)ccc12 (centres unmarked) [hydroxychloroquine]
viral load in nasal swabs (SARS-CoV-2 [2]): significantly reduced viral load

CC(C)(O)c1ccc2c(c1)/C(=C/CCN1CC[C@](O)(c3ccc(Cl)cc3)C(C)(C)C1)c1cccnc1CO2 [MLN-3897]
inhibition of viral replication (SARS-CoV-2 [1]): inhibited viral replication

C[C@@H]1CS/C(=N\NC(=O)C(=O)[C@@H](NC(=O)C2CCCCCC2)C2CCOCC2)N1C [ONO 5334]
inhibition of viral replication (SARS-CoV-2 [1]): inhibited viral replication

Cc1cccc(/C=N/Nc2cc(N3CCOCC3)nc(OCCc3ccccn3)n2)c1 [Apilimod]
inhibition of viral replication (SARS-CoV-2 [1]): inhibited viral replication

CN(C)c1ccc2c(c1)Sc1cc(N(C)C)ccc1N2.CS(=O)(=O)O.CS(=O)(=O)O [LMTM, N,N,N′,N′-tetramethyl-10H-phenothiazine-3,7-diaminium bis(hydromethanesulfonate)]
cardiotoxicity (Cardiotoxicity): does not have the cardiotoxicity | minimum effective dose required for anti-dementia effects [3]: 8 mg/day | optimally effective dose [3]: 16 mg/day | equivalent doses of LMTM [4]: 12 - 27 mg/MT per day | better uptake into red cells (red cells): 20 fold | better brain:plasma ratio [5]: more than 60 fold | brain Complex IV activity (Complex IV): enhance brain Complex IV activity | change in RBC count, haemoglobin and haematocrit ([6]; LMTM 8 mg/day): minimal change | subjects discontinued due to adverse events ([6]; LMTM 8 mg/day): 6% | vital sign measurements, ECGs, or the C-SSRS ([6]; Phase 3 studies): No clinically meaningful trends | RBC count, haemoglobin and haematocrit ([6]; greater decreases in the higher dose groups (150 to 250 mg/day) compared to 8 mg/day): dose-dependent decreases | subjects discontinuing due to adverse events ([6]; higher LMTM doses of 150 to 250 mg/day): 14% | incidence of anaemia-related TEAEs, gastrointestinal events and genitourinary events ([6]; higher LMTM doses, 150 to 250 mg/day): dose-related increase | safety profile ([6]; over 2400 patients in Phase 1 and Phase 3 trials, repeat doses up to 450 mg/day): benign

CCN(CC)CCCC(C)Nc1ccnc2cc(Cl)ccc12 (centres unmarked) [chloroquine]
benefit in advanced cases (mortality rates) (SARS-CoV-2 [7]): no benefit | effectiveness against SARS-CoV-2 in vitro (SARS-CoV-2 [8]): effectiveness | effectiveness against SARS-CoV in vitro (SARS-CoV): effectiveness

CC[C@H](NC(=O)[C@H](CS(=O)(=O)CC1CC1)N[C@@H](c1ccc(F)cc1)C(F)(F)F)C(=O)C(=O)NC1CC1 [VBY-825]
inhibition of viral replication (SARS-CoV-2 [1]): inhibited viral replication
